Counter-ions that a name gives are not always drawn.

This assay deals with T1, Recombinant human Protein-tyrosine phosphatase1B (PTP1B) (Homo sapiens, UniProt P18031).
T1 construct: Recombinant human Protein-tyrosine phosphatase1B (PTP1B) (amino acid 1-322 Biomol, USA); purchased Biomol, USA
T1 sequence (P18031 1-322): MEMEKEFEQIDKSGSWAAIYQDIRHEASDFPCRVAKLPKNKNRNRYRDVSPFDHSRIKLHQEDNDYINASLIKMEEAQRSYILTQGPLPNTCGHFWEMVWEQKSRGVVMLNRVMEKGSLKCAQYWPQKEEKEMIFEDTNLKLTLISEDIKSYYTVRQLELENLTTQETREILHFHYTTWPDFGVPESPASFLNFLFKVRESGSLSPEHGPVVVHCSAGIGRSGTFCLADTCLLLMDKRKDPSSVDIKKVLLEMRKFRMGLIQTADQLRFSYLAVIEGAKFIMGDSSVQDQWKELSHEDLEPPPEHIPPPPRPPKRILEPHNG
Briefly: PTP1B enzyme inhibition assay (pNpp substrate). It is filed as biochemical. The conditions noted are these: inhibition of recombinant human PTP1B, pNpp 5 mM, 30 mins at 25° C; inhibitor concentration not given. Put shortly:
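Recombinant human PTP1B (0.016 μg/well) preincubated with compound 30 min at 25 °C in 50 mM HEPES pH 7.4, 1 mM EDTA, 1 mM DTT, 0.05% Igepal, 1% DMSO final. Reaction started with 5 mM pNpp, run 30 min at 25 °C; p-nitrophenol read at 410 nm.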
For the compound `O=C(O)Cc1ccc(NC2=NC(=O)C(=Cc3ccc4[nH]ccc4c3)S2)cc1` [Compound 170, {4-[5-(H-Indol-5-ylmethylene)-4-oxo-4,5-dihydro-thiazol-2-ylamino]-phenyl}-acetic acid], the “Activity Score” value is “(+++) (+++ = >50% inhibition)”.
The entry for `Cc1ccc(S(=O)(=O)NC(=O)Cc2ccc(NC3=NC(=O)C(=Cc4ccc(N5CCN(c6ccccn6)CC5)cc4)S3)cc2)cc1.[Na]` [Compound 173, 4-Methyl-N-[2-(4-{4-oxo-5-[4-(4-pyridin-2-yl-piperazin-1-yl)-benzylidene]-4,5-dihydro-thiazol-2-ylamino}-phenyl)-acetyl]-benzenesulfonamide sodium salt] is “(+++) (+++ = >50% inhibition)”.
For `COc1cc2ccccc2cc1C=C1SC(Nc2ccc(CCC(=O)[O-])cc2)=NC1=O.[Na+]` [Compound 177, 3-{-4-[5-(3-Methoxy-naphthalen-2-ylmethylene)-4-oxo-4,5-dihydro-thiazol-2-ylamino]-phenyl}-sodium propionate], the “Activity Score” value is listed as “(+++) (+++ = >50% inhibition)”.
Take `O=C(O)Cc1ccc(NC2=NC(=O)C(=Cc3ccc(-c4ccc(O)cc4)cc3)S2)cc1` [Compound 199, {4-[5-(4′-Hydroxy-biphenyl-4-ylmethylene)-4-oxo-4,5-dihydro-thiazol-2-ylamino]-phenyl}-acetic acid]: the “Activity Score” value is on record as “(+++) (+++ = >50% inhibition)”.
Consider `O=C(O)Cc1ccc(NC2=NC(=O)C(=Cc3ccc(-c4ccccc4)cc3)S2)cc1C(=O)O` [Compound 200, 5-(5-Biphenyl-4-ylmethylene-4-oxo-4,5-dihydro-thiazol-2-ylamino)-2-carboxymethyl-benzoic acid], for which the “Activity Score” value was “(+++) (+++ = >50% inhibition)”.
With `O=C(O)COc1ccc(-c2ccc(C=C3SC(Nc4ccc(CC(=O)O)cc4)=NC3=O)cc2)cc1` [Compound 201, {4-[5-(4′-Carboxymethoxy-biphenyl-4-ylmethylene)-4-oxo-4,5-dihydro-thiazol-2-ylamino]-phenyl}-acetic acid], the “Activity Score” value is “(+++) (+++ = >50% inhibition)”.
For `O=C([O-])CCc1ccc(NC2=NC(=O)C(=Cc3ccc4cc(F)ccc4c3)S2)cc1.[Na+]` [Compound 205, 3-{4-[5-(6-Fluoro-naphthalen-2-ylmethylene)-4-oxo-4,5-dihydro-thiazol-2-ylamino]-phenyl}-sodium propionate], the “Activity Score” value is given as “(+++) (+++ = >50% inhibition)”.
Regarding `NS(=O)(=O)c1ccc(-c2ccc(C=C3SC(Nc4ccc(CC(=O)O)cc4)=NC3=O)cc2)cc1` [Compound 210, {4-[4-Oxo-5-(4′-sulfamoyl-biphenyl-4-ylmethylene)-4,5-dihydro-thiazol-2-ylamino]-phenyl}-acetic acid], the “Activity Score” value is given as “(+++) (+++ = >50% inhibition)”.
Turning to `Cc1ccc(S(=O)(=O)NC(=O)Cc2ccc(NC3=NC(=O)C(=Cc4ccc(-c5ccc(O)cc5)cc4)S3)cc2)cc1.[Na].[Na]` [Compound 212, N-(2-{4-[5-(4′Hydroxy-biphenyl-4-ylmethylene)-4-oxo-4,5-dihydro-thiazol-2-ylamino]-phenyl}-acetyl)-4-methyl-benzenesulfonamide di-sodium salt], the “Activity Score” value is listed as “(++) (++ = 20-50% inhibition)”.
For the compound `Cc1ccc(S(=O)(=O)NC(=O)Cc2ccc(NC3=NC(=O)C(=Cc4cc5ccccc5cc4OCC(=O)O)S3)cc2)cc1` [Compound 213, [3-(4-Oxo-2-{4-[2-oxo-2-(toluene-4-sulfonylamino)-ethyl]-phenylamino}-4H-thiazol-5-ylidenemethyl)-naphthalen-2-yloxy]-acetic acid], the “Activity Score” value was “(++) (++ = 20-50% inhibition)”.
`CCOc1ccc(-c2ccc(C=C3SC(Nc4ccc(CC(=O)NS(=O)(=O)c5ccc(C)cc5)cc4)=NC3=O)cc2)cc1.[Na]` [Compound 214, N-(2-{4-[5-(4′-Ethoxy-biphenyl-4-ylmethylene)-4-oxo-4,5-dihydro-thiazol-2-ylamino]-phenyl}-acetyl)-4-methyl-benzenesulfonamide sodium salt]: the “Activity Score” value is on record as “(+++) (+++ = >50% inhibition)”.
Regarding `Cc1ccc(S(=O)(=O)NC(=O)Cc2ccc(NC3=NC(=O)C(=Cc4ccc(-c5ccc(F)cc5)cc4)S3)cc2)cc1` [Compound 215, N-(2-{4-[5-(4′-Fluoro-biphenyl-4-ylmethylene)-4-oxo-4,5-dihydro-thiazol-2-ylamino]-phenyl}-acetyl)-4-methyl-benzenesulfonamide sodium salt], the “Activity Score” value is reported as “(+++) (+++ = >50% inhibition)”.
As for `O=C(Cc1ccc(NC2=NC(=O)C(=Cc3ccc(-c4ccccc4)cc3)S2)cc1)NS(=O)(=O)c1ccc(C(F)(F)F)cc1.[Na]` [Compound 219, N-{2-[4-(5-Biphenyl-4-ylmethylene-4-oxo-4,5-dihydro-thiazol-2-ylamino)-phenyl]-acetyl}-4-trifluoromethyl-benzenesulfonamide, sodium salt], the “Activity Score” value is on record as “(+++) (+++ = >50% inhibition)”.
In the case of `O=C(Cc1ccc(NC2=NC(=O)C(=Cc3ccc(-c4ccccc4)cc3)S2)cc1)NS(=O)(=O)c1cccs1.[Na]` [Compound 223, Thiophene-2-sulfonic acid {2-[4-(5-biphenyl-4-ylmethylene-4-oxo-4,5-dihydro-thiazol-2-ylamino)-phenyl]-acetyl}-amide, sodium salt], the “Activity Score” value is “(++) (++ = 20-50% inhibition)”.
Consider `O=C(Cc1ccc(NC2=NC(=O)C(=Cc3ccc(-c4ccccc4)cc3)S2)cc1)NS(=O)(=O)c1ccc(F)cc1.[Na]` [Compound 224, N-{2-[4-(5-Biphenyl-4-ylmethylene-4-oxo-4,5-dihydro-thiazol-2-ylamino)-phenyl]-acetyl}-4-fluoro-benzenesulfonamide, sodium salt], for which the “Activity Score” value is “(++) (++ = 20-50% inhibition)”.
As to `CS(=O)(=O)NC(=O)Cc1ccc(NC2=NC(=O)C(=Cc3ccc(-c4ccccc4)cc3)S2)cc1.[Na]` [Compound 225, N-{2-[4-(5-Biphenyl-4-ylmethylene-4-oxo-4,5-dihydro-thiazol-2-ylamino)-phenyl]-acetyl}-methanesulfonamide, sodium salt], the “Activity Score” value is “(+) (+ = 10-20% inhibition)”.
`COc1ccc(S(=O)(=O)NC(=O)Cc2ccc(NC3=NC(=O)C(=Cc4ccc(-c5ccccc5)cc4)S3)cc2)cc1.[Na]` [Compound 226, N-{2-[4-(5-Biphenyl-4-ylmethylene-4-oxo-4,5-dihydro-thiazol-2-ylamino)-phenyl]-acetyl}-4-methoxy-benzenesulfonamide, sodium salt]: the “Activity Score” value is reported as “(+++) (+++ = >50% inhibition)”.
Turning to `CSc1ccc(-c2ccc(C=C3SC(Nc4ccc(CC(=O)NS(=O)(=O)c5ccc(C(F)(F)F)cc5)cc4)=NC3=O)c(F)c2)cc1.[Na]` [Compound 239, N-(2-{4-[5-(3-Fluoro-4′-methylsulfanyl-biphenyl-4-ylmethylene)-4-oxo-4,5-dihydro-thiazol-2-ylamino]-phenyl}-acetyl)-4-trifluoromethyl-benzenesulfonamide sodium salt], the “Activity Score” value is on record as “(+) (+ = 10-20% inhibition)”.
As to `N#Cc1ccc(-c2ccc(C=C3SC(Nc4ccc(CC(=O)O)cc4)=NC3=O)cc2)cc1` [Compound 243, {4-[5-(4′-Cyano-biphenyl-4-ylmethylene)-4-oxo-4,5-dihydro-thiazol-2-ylamino]-phenyl}-acetic acid], the “Activity Score” value is reported as “(+++) (+++ = >50% inhibition)”.
In the case of “(4-{2-[5-(3-Benzyloxy-naphthalen-2-ylmethylene)-4-oxo-4,5-dihydro-thiazol-2-ylamino]-acetyl amino}-phenyl)-acetic acid [Compound 22]”, the “Activity Score” value is “(+++) (+++ = >50% inhibition)”.
The entry for “(4-{5-[3-(3-Methoxy-benzyloxy)-naphthalen-2-ylmethylene]-4-oxo-4-4,5-dihydro-thiazol-2-ylamino}-phenyl)-sodium acetate [Compound 181]” is “(+) (+ = 10-20% inhibition)”; for “[4-(N′-{4-Oxo-5-[4-(1H-tetrazol-5-yl)-benzylidene]-4,5-dihydro-thiazol-2-yl}-hydrazino)-phenyl]-acetic acid [Compound 34]” it is “(+++) (+++ = >50% inhibition)”; for “{3-[5-(1-Carbamoylmethyl-1H-indol-3-ylmethylene)-4-oxo-4,5-dihydro-thiazol-2-ylamino]-phenyl}-acetic acid [Compound 23]” it is “(+++) (+++ = >50% inhibition)”.
